{
  "source": "patent US20100239498A1",
  "about": "“METHOD OF MAINTAINING THE FUNCTION OF LIVER TISSUE CELLS OVER LONG TIME” (priority 2006, published 2010)",
  "system": "CYP1A",
  "assay": "CYP1A induction in transplanted murine subcutaneous hepatic tissue, tissue staining (Example 3)",
  "assay_type": "in vivo, mouse",
  "conditions": "120 days after transplantation; intraperitoneal once a day for three days; tissue staining 24 hours after final administration",
  "procedure": "The murine hepatic tissue cell sheet as obtained in Example 1 was transplanted by application into a murine subcutaneous site having undergone the induction of angiogenesis in accordance with the method of transplanting a hepatic cell sheet as shown in Example 1. One hundred twenty days after transplantation, 3-methylcholantrene (Sigma-Aldrich, St. Louis, Mo.) was intraperitoneally administered once a day and continuously for three days, and 24 hours after the final administration, the mouse was killed and the hepatic tissue prepared was subjected to tissue staining (Example 3). […] Further, CYP1A means CYP1A activity.",
  "data": [
    {"smiles": "Cc1ccc2cc3c(ccc4ccccc43)c3c2c1CC3", "note": "[3-methylcholantrene]", "values": [
      {"measurement": "induction of CYP1A (CYP1A activity) in prepared murine subcutaneous hepatic tissue", "value": "strongly induced"}
    ]}
  ]
}
